Reference: US8912188B2, “Substituted quinoxaline carboxylic acids for the inhibition of PASK” (BioEnergenix, LLC, priority 2011, dated 2014)

Experiments:
[1] = In vivo pharmacokinetics in the Sprague Dawley rat; settings: for bioavailability / half-life: blood; for bioavailability: po, 10 mg/kg; for bioavailability / half-life / volume of distribution: summary of Table 3; for t1/2 (half-life): intravenous 3 mg/kg (1 mg/kg for Example 105), oral 10 mg/kg; for Cl (clearance) / Vss (volume of distribution): intravenous via tail vein, 3 mg/kg (1 mg/kg for Example 105); for Tmax (time to maximum blood concentration after an oral dose): oral gavage 10 mg/kg; for F (oral bioavailability): oral gavage 10 mg/kg vs intravenous 3 mg/kg (1 mg/kg for Example 105)
Method: Pharmacokinetics of a PASK Inhibitor
The test compounds were formulated in polyethylene glycol and beta cyclodextrin in water for administration at 1 mg/kg for Example 105, and at 3 mg/kg for Example 14, 15, and 18 for intravenous administration via the tail vein and 10 mg/kg for oral administration by gavage. Blood samples were collected at 0.083, 0.25, 0.5, 1, 2, 4, 6, 8, and 24 hours and the samples were analyzed for test compounds content using LC/MS/MS. The data was submitted to pharmacokinetic analysis using WinNonLin software and the observed and calculated pharmacokinetic parameters are shown in Table 3 for each compound.

[2] = target: T1, PASK (UniProt #Q96RG2; human recombinant N-terminal GST tagged construct, residues 879-1323) (Homo sapiens, UniProt Q96RG2); assay: PASK ATP Radiochemical Assay; assay type: biochemical; settings: 33P-ATP, Myelin Basic Protein substrate, 120 min at room temperature, read-out: IC50 Kinase Domain
T1 construct: human recombinant N-terminal GST tagged construct, residues 879-1323; GST (N); host or cells: insect cells
T1 sequence (Q96RG2 879-1323, stated change not applied): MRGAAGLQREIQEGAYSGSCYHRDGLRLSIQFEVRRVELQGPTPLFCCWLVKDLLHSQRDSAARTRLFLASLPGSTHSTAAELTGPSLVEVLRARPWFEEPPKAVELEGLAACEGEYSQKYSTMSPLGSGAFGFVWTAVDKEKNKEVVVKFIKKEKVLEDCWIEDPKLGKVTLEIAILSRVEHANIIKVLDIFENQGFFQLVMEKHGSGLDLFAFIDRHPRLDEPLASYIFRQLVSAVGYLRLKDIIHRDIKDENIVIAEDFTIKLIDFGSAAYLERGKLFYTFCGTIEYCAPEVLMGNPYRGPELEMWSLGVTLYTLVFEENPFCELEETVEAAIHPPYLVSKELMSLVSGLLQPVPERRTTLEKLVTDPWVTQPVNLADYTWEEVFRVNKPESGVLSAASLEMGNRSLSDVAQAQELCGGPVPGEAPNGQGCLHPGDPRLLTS
Method: Biochemical Assay for hPASK Activity
PASK ATP Radiochemical Assay
Test compounds in DMSO are then added and the mixture, followed by delivery of ^33P-ATP (specific activity 0.01 μCi/μl final) to initiate the reaction. […] The entire reaction mixture is washed through onto a P81 Phosphocellulose paper and washed three times for 10 minutes in 75 mM phosphoric acid and once in methanol prior to drying and scintillation counting.

[3] = target: T2, PASK (Invitrogen) (Homo sapiens, UniProt Q96RG2); assay: PAS Kinase FRET Assay; assay type: biochemical; settings: PAS kinase TR-FRET assay (665 nm/615 nm), 2 hours at 25° C.; read-out: IC50 Kinase Domain
T2 construct: IC50 Kinase Domain; purchased Invitrogen
T2 sequence (Q96RG2 999-1251 limits assumed): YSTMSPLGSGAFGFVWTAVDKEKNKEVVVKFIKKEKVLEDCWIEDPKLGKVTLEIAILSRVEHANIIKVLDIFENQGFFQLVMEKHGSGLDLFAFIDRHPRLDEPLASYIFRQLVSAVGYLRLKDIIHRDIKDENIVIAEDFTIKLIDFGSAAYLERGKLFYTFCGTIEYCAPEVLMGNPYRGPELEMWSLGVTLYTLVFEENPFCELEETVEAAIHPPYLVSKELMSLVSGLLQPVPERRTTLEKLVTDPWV

bioavailability [1] [%] | half-life [1] [h] | t1/2 (half-life) [1] [h] | Cl (clearance) [1] [mL/min/kg] | Vss (volume of distribution) [1] [L/kg] | Tmax (time to maximum blood concentration after an oral dose) [1] [h] | F (oral bioavailability) [1] [%] | volume of distribution [1] | IC50 [2] [µM] | IC50 [3] [µM] | Compound
≥ 63 | ≥ 3 | 3.68 | 1.72 | 0.362 | 6 | 63.4 | low | < 10 | < 10 | C[C@H]1CCCN1c1nc2cc(C(=O)O)ccc2nc1-c1cc2ccccc2o1 [Example 14, (S)-2-(Benzofuran-2-yl)-3-(2-methylpyrrolidin-1-yl)quinoxaline-6-carboxylic acid]
≥ 63 | ≥ 3 | 3.39 | 1.4 | 0.347 | 6 | 79 | low | < 10 | < 10 | CN(c1nc2cc(C(=O)O)ccc2nc1-c1cc2ccccc2o1)C1CC1 [Example 15, 2-(Benzofuran-2-yl)-3-(cyclopropyl(methyl)amino)quinoxaline-6-carboxylic acid]
> 74 | > 7 | 7.72 | 0.712 | 0.407 | 1 | 74.8 | low | < 10 | < 10 | C[C@H]1COCCN1c1nc2cc(C(=O)O)ccc2nc1-c1ccc(F)cc1 [Example 105, (S)-2-(4-Fluorophenyl)-3-(3-methylmorpholino)quinoxaline-6-carboxylic acid]
– | – | – | – | – | – | – | – | < 10 | < 10 | C[C@H]1CCCN1c1nc2cc(C(=O)O)ccc2nc1-c1ccc(F)c(F)c1 [Example 148, (S)-2-(3,4-Difluorophenyl)-3-(2-methylpyrrolidin-1-yl)quinoxaline-6-carboxylic acid]

The remaining lines, values behind:

Compound | bioavailability [1] [%] | half-life [1] [h] | t1/2 (half-life) [1] [h] | Cl (clearance) [1] [mL/min/kg] | Vss (volume of distribution) [1] [L/kg] | Tmax (time to maximum blood concentration after an oral dose) [1] [h] | F (oral bioavailability) [1] [%] | volume of distribution [1] | IC50 [2] [µM] | IC50 [3] [µM]
CC(C)N(C)c1nc2cc(C(=O)O)ccc2nc1-c1cc2cc(F)ccc2o1 [Example 18, 2-(5-Fluorobenzofuran-2-yl)-3-(isopropyl(methyl)amino)quinoxaline-6-carboxylic acid] | ≥ 63 | ≥ 3 | 7.72 | 1.33 | 0.366 | 8 | 74.8 | low | < 10 | < 10
CC(C)N(C)c1nc2cc(C(=O)O)ccc2nc1-c1ccc(F)cc1F [Example 147, 2-(2,4-Difluorophenyl)-3-[methyl(propan-2-yl)amino]quinoxaline-6-carboxylic acid] | – | – | – | – | – | – | – | – | < 10 | < 10
CC(=O)Nc1ccc(-c2nc3ccc(C(=O)O)cc3nc2N(C)C(C)C)cc1 [Example 149, 2-(4-Acetamidophenyl)-3-[methyl(propan-2-yl)amino]quinoxaline-6-carboxylic acid] | – | – | – | – | – | – | – | – | < 10 | < 10
